# System: HCT116 colorectal cancer cells
# Experiment: Cisplatin sensitization assay (96 h MTS cell viability);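 note: compound concentration needed to lower the IC50 of Cisplatin alone by a set fold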
# Format: cell-based
# Conditions: Cisplatin sensitization value
# How it was run: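 HCT116 cells were dosed simultaneously with compound and cisplatin as a full matrix of 2-fold serial dilutions from 10 μM top final concentration. Incubation was 96 h at 37° C., 5% CO2, followed by 1 h with MTS reagent for the viability read-out. Sensitization values were binned into +++, ++ and + categories.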
row,Compound,Cisplatin Sensitization Assay
1,"Nc1nn2cc(Cl)cnc2c1C(=O)Nc1cnccc1C1CCN(C2COC2)CC1 [I-C-11, 2-amino-6-chloro-N-(4-(1-(oxetan-3-yl)piperidin-4-yl)pyridin-3-yl)pyrazolo[1,5-a]pyrimidine-3-carboxamide]",+++ (Compounds with a Cisplatin sensitization value of <0.02 μM are marked with “+++.”)
2,"CN1CCN(c2ccncc2NC(=O)c2c(N)nn3cc(Cl)cnc23)CC1(C)C [I-N-53, 2-amino-6-chloro-N-(4-(3,3,4-trimethylpiperazin-1-yl)pyridin-3-yl)pyrazolo[1,5-a]pyrimidine-3-carboxamide]",++ (Compounds with a Cisplatin sensitization value >0.02 μM but <0.2 μM are marked with “++.”)
3,"Nc1nn2cc(F)cnc2c1C(=O)Nc1cnccc1O[C@H]1CN2CCC1CC2 [I-O-5, (R)-2-amino-6-fluoro-N-(4-(quinuclidin-3-yloxy)pyridin-3-yl)pyrazolo[1,5-a]pyrimidine-3-carboxamide]",+++ (Compounds with a Cisplatin sensitization value of <0.02 μM are marked with “+++.”)
4,"Nc1nn2cc(F)cnc2c1C(=O)Nc1cnccc1-c1ccnnc1 [I-C-26, 2-amino-6-fluoro-N-(4-(pyridazin-4-yl)pyridin-3-yl)pyrazolo[1,5-a]pyrimidine-3-carboxamide]",++ (Compounds with a Cisplatin sensitization value >0.02 μM but <0.2 μM are marked with “++.”)
5,"Nc1nn2cc(F)cnc2c1C(=O)Nc1cncc(F)c1N1CC(=O)N2CCCC2C1 (centres unmarked) [I-N-232, 2-amino-6-fluoro-N-(5-fluoro-4-(4-oxohexahydropyrrolo[1,2-a]pyrazin-2(1H)-yl)pyridin-3-yl)pyrazolo[1,5-a]pyrimidine-3-carboxamide]",++ (Compounds with a Cisplatin sensitization value >0.02 μM but <0.2 μM are marked with “++.”)
6,"Nc1nn2cc(F)cnc2c1C(=O)Nc1cnccc1N1CCC(CN2CCC(F)(F)C2)CC1 [I-N-197, 2-amino-N-(4-(4-((3,3-difluoropyrrolidin-1-yl)methyl)piperidin-1-yl)pyridin-3-yl)-6-fluoropyrazolo[1,5-a]pyrimidine-3-carboxamide]",+++ (Compounds with a Cisplatin sensitization value of <0.02 μM are marked with “+++.”)
7,"Nc1nn2cc(Cl)cnc2c1C(=O)Nc1cnccc1O[C@@H]1CCOC1 [I-O-54, (R)-2-amino-6-chloro-N-(4-((tetrahydrofuran-3-yl)oxy)pyridin-3-yl)pyrazolo[1,5-a]pyrimidine-3-carboxamide]",+++ (Compounds with a Cisplatin sensitization value of <0.02 μM are marked with “+++.”)
8,"CN1CC(N2CCN(C(=O)C3CCN(c4c(F)cncc4NC(=O)c4c(N)nn5cc(F)cnc45)CC3)CC2)C1 [I-G-96, 2-amino-6-fluoro-N-(5-fluoro-4-(4-(4-(1-methylazetidin-3-yl)piperazine-1-carbonyl)piperidin-1-yl)pyridin-3-yl)pyrazolo[1,5-a]pyrimidine-3-carboxamide]",+++ (Compounds with a Cisplatin sensitization value of <0.02 μM are marked with “+++.”)
9,"Cc1cncc(NC(=O)c2c(N)nn3cc(F)cnc23)c1N1CCN(C2COC2)CC1 [I-N-16, 2-amino-6-fluoro-N-(5-methyl-4-(4-(oxetan-3-yl)piperazin-1-yl)pyridin-3-yl)pyrazolo[1,5-a]pyrimidine-3-carboxamide]",+++ (Compounds with a Cisplatin sensitization value of <0.02 μM are marked with “+++.”)
10,"N#CCc1cnc2c(C(=O)Nc3cnccc3OC3CCCOC3)c(N)nn2c1 (centres unmarked) [I-O-41, 2-amino-6-(cyanomethyl)-N-(4-((tetrahydro-2H-pyran-3-yl)oxy)pyridin-3-yl)pyrazolo[1,5-a]pyrimidine-3-carboxamide]",+++ (Compounds with a Cisplatin sensitization value of <0.02 μM are marked with “+++.”)
11,"Nc1nn2cc(F)cnc2c1C(=O)Nc1cnccc1N1CCN2CCC[C@H]2C1 [I-N-21, (S)-2-amino-6-fluoro-N-(4-(hexahydropyrrolo[1,2-a]pyrazin-2(1H)-yl)pyridin-3-yl)pyrazolo[1,5-a]pyrimidine-3-carboxamide]",+++ (Compounds with a Cisplatin sensitization value of <0.02 μM are marked with “+++.”)
12,"Cn1cc(-c2ccncc2NC(=O)c2c(N)nn3cc(F)cnc23)ccc1=O [I-C-59, 2-amino-6-fluoro-N-(1-methyl-6-oxo-1,6-dihydro-[3,4′-bipyridin]-3′-yl)pyrazolo[1,5-a]pyrimidine-3-carboxamide]",++ (Compounds with a Cisplatin sensitization value >0.02 μM but <0.2 μM are marked with “++.”)
13,"Cc1nnccc1-c1ccncc1NC(=O)c1c(N)nn2cc(F)cnc12 [I-C-31, 2-amino-6-fluoro-N-(4-(3-methylpyridazin-4-yl)pyridin-3-yl)pyrazolo[1,5-a]pyrimidine-3-carboxamide]",+++ (Compounds with a Cisplatin sensitization value of <0.02 μM are marked with “+++.”)
14,"CC1(N2CCN(c3ccncc3NC(=O)c3c(N)nn4cc(F)cnc34)CC2)COC1 [I-N-62, 2-amino-6-fluoro-N-(4-(4-(3-methyloxetan-3-yl)piperazin-1-yl)pyridin-3-yl)pyrazolo[1,5-a]pyrimidine-3-carboxamide]",++ (Compounds with a Cisplatin sensitization value >0.02 μM but <0.2 μM are marked with “++.”)
15,"Nc1nn2cc(F)cnc2c1C(=O)Nc1cnccc1N1CCN2C(=O)COCC2C1 (centres unmarked) [I-N-136, 2-amino-6-fluoro-N-(4-(4-oxohexahydropyrazino[2,1-c][1,4]oxazin-8(1H)-yl)pyridin-3-yl)pyrazolo[1,5-a]pyrimidine-3-carboxamide]",++ (Compounds with a Cisplatin sensitization value >0.02 μM but <0.2 μM are marked with “++.”)
16,"N#CCc1cnc2c(C(=O)Nc3cnccc3OC3COC3)c(N)nn2c1 [I-O-38, 2-amino-6-(cyanomethyl)-N-(4-(oxetan-3-yloxy)pyridin-3-yl)pyrazolo[1,5-a]pyrimidine-3-carboxamide]",+++ (Compounds with a Cisplatin sensitization value of <0.02 μM are marked with “+++.”)
17,"CN1CCC(NC(=O)C2CCN(c3c(F)cncc3NC(=O)c3c(N)nn4cc(F)cnc34)CC2)CC1 [I-G-20, 2-amino-6-fluoro-N-(5-fluoro-4-(4-((1-methylpiperidin-4-yl)carbamoyl)piperidin-1-yl)pyridin-3-yl)pyrazolo[1,5-a]pyrimidine-3-carboxamide]",+ (Compounds with a Cisplatin sensitization value >0.2 μM but <5 μM are marked with “+.”)
18,"CS(=O)(=O)c1ccc(-c2ccncc2NC(=O)c2c(N)nn3cc(F)cnc23)cc1 [I-C-61, 2-amino-6-fluoro-N-(4-(4-(methylsulfonyl)phenyl)pyridin-3-yl)pyrazolo[1,5-a]pyrimidine-3-carboxamide]",+++ (Compounds with a Cisplatin sensitization value of <0.02 μM are marked with “+++.”)
19,"Cc1cncn1-c1ccncc1NC(=O)c1c(N)nn2cc(F)cnc12 [I-N-283, 2-amino-6-fluoro-N-(4-(5-methyl-1H-imidazol-1-yl)pyridin-3-yl)pyrazolo[1,5-a]pyrimidine-3-carboxamide]",++ (Compounds with a Cisplatin sensitization value >0.02 μM but <0.2 μM are marked with “++.”)
20,"Nc1nn2cc(F)cnc2c1C(=O)Nc1cnccc1-n1cccn1 [I-N-26, N-(4-(1H-pyrazol-1-yl)pyridin-3-yl)-2-amino-6-fluoropyrazolo[1,5-a]pyrimidine-3-carboxamide]",+ (Compounds with a Cisplatin sensitization value >0.2 μM but <5 μM are marked with “+.”)

# From patent publication US11117900B2 (Vertex Pharmaceuticals Incorporated, priority 2012, dated 2021)
